# Key:
# [1] = system: PIP3 levels in A549 cells; experiment: PIP3 measurement by mass spectrometry in A549 cells; assay type: cell-based, human; settings: 2 min
# Description: FIG. 21. a, MEFs were stimulated for the indicated time points with 1938 (5 μM) or for 2 min with PDGF (20 ng/ml) or insulin (100 nM), followed by lipid extraction and PIP3 measurement by mass spectrometry. b, MEFs were stimulated for 2 min with increasing doses of 1938 or PDGF, followed by lipid extraction and PIP3 measurement by mass spectrometry. c, A549 cells were stimulated for 2 min with increasing doses of 1938 or insulin, or 10 ng/ml PDGF, followed by lipid extraction and PIP3 measurement by mass spectrometry. […] These maximal 1938-induced PIP3 levels are below those required to give rise to sufficient PI(3,4)P2 to be detectable by mass spectrometry, a conclusion also supported by the observation that substantial levels of PIP3 induced by lower doses of PDGF (e.g. 0.5 ng/ml) were also not sufficient to give rise to levels of PI(3,4)P2 detectable by mass. […] A strong PIP3 response was also observed with insulin in these cells, with no PIP3 induced by PDGF, in line with the absence of this receptor in epithelial cells, including in A549.
# [2] = system: PI3Kα-WT and PI3Kα-KO MEFs; experiment: Mass spectrometry-based phosphoproteomics in MEFs; assay type: cell-based, mouse; settings: for differentially phosphorylated peptides/sites: PI3Kα-WT MEFs
# Description: The inventors next investigated the impact of 1938 on cell signalling in an unbiased manner using phosphoproteomics. […] The inventors quantified 10,611 phosphosites from 3,093 proteins of which 9100, 1420 and 91 were pSer, pThr and pTyr residues, respectively (FIG. 16/Extended Data FIG. 8a). […] Compared to vehicle-treated cells, insulin treatment of PI3Kα-WT MEFs induced differential phosphorylation of 11 and 18 sites at 15 min and 4 h, respectively (FIG. 16/Extended Data FIG. 8c). […] Furthermore, approximately half of the 1938-controlled phosphosites have been previously reported (in PhosphoSitePlus) to be regulated by insulin, IGF-1, PI3K inhibition or AKT inhibition, with some linked to regulation by mTOR or PDK1 (FIG. 3gi,ii).
# PI3Kα-WT and PI3Kα-KO MEFs, grown in 15 cm dishes, were serum-starved overnight in DMEM with 1% penicillin-streptomycin and stimulated by the addition of 0.05% DMSO, […] 1938 in final 0.05% DMSO or 100 nM insulin (Sigma, 15016) for 15 min or 4 h. Cells were lysed in […] urea lysis buffer [50 mM triethylammonium bicarbonate, 8 M urea, cOmplete™, EDTA-free protease inhibitor cocktail (1:50 dilution) (Roche, 11873580001), 1 PhosSTOP tablet (Roche, 4906845001), 1 mM sodium orthovanadate] and lysates sonicated until clear for ˜10 min with cooling breaks on ice. Protein concentration was measured using a BCA protein assay (Pierce #23227). 300 μg of protein was reduced with 5 mM Tris(2-carboxyethyl)phosphine hydrochloride (Sigma, C4706) at 37° C. for 20 min and alkylated using 10 mM 2-chloroacetamide (Sigma, 22790) for 20 min at room temperature in the dark. Proteins were digested with LysC for 3.5 h at 30° C. […] Fifty percent of each sample was analysed as 10 μl injections. […] Precursor ions were measured in a data-dependent mode in the orbitrap analyser at a resolution of 70,000 and a target value of 3e6 ions. The ten most intense ions from each MS1 scan were isolated, fragmented in the HCD cell, and measured in the Orbitrap at a resolution of 17,500. […]
smiles,measurement,setting,value
CCN1CCN(c2ccc(Nc3cc(Nc4cccc5c4N(C(C)=O)CC5)ccn3)cc2)CC1 [Example 1938],concentration at which PIP3 response maxed out,[1],10 µM
same,signalling impact in PI3Kα-KO MEFs,[2]; PI3Kα-KO MEFs,little signalling impact
same,differentially phosphorylated peptides/sites,[2]; 15 min treatment,27
same,differentially phosphorylated peptides/sites,[2]; 4 h treatment,50
